# Assay results published in patent US20020198160A1, “Compositions and methods for enhancing the bioavailability of pharmaceutical agents” (priority 2001, published 2002).
# Read-outs that look alike come from different tables or passages of the source.
# Key:
# P-glycoprotein [1] = molecular target: T1, P-glycoprotein (Homo sapiens, UniProt P08183)
# Description: (§1) The cells were grown and maintained in DMEM (Dulbecco's modified eagle's medium, purchased from Gibco/BRL, Grand Island, N.Y.) supplemented with 10% fetal bovine serum and 2 mM L-glutamine.
# (§2) Cell cultures were maintained, antibiotic free, in a 37° C. incubator with 90% relative humidity in an atmosphere of 5% CO2. The cells were maintained in 10 cm^2 stock plates and seeded onto polycarbonate Transwell™ HTS filter inserts at 4×10^5 cells/mL. The cells were cultured on the filters for about 27-30 days. Caco-2 cells having passages between 40 and 110 were used for the studies.
# (§3) The integrity of the cell monolayers was determined by measuring the paracellular transepithelial transport of the integrity marker, Lucifer yellow, which is commercially available from Sigma Chemical of St. Louis, Mo.
# (§4) Stock concentrations (C0) of each of the P-glycoprotein inhibitors were treated similarly as dosed cells and were retained and sampled for starting dose. Aliquots for both the AP and the BL sides of the cell monolayers were taken at 2 hours, and such aliquots were analyzed by LSC Calculation of the apparent permeability by using the Artusson equation shown above. For the triplicate wells the P(app) is the mean of the three individual P(app) values for each well.
# [2] = tested on: H460/T800 cells (which over express P-glycoprotein); assay: Reduction of the IC50 of paclitaxel in paclitaxel resistant H460/T800 cells on adding lopinavir; type: cell-based
# [3] = tested on: HCT15 cells (which express P-glycoprotein); assay: Efflux of radiolabelled lopinavir, ritonavir and paclitaxel from HCT15 cells; type: cell-based; conditions: 1 μM loaded for 1 hour, FIG. 1
# Description: The medium was aspirated and the cells were washed with PBS (phosphate buffered saline, available from Life Technologies, Rockvile, Md.). At harvest, the cells were washed once with PBS and the pellets were dissolved in 550 μl of 1N NaOH. The total protein was determined by Bio-Rad assay (available from Bio-Rad of Hercules, Ca.) and the total radioactivity was determined by LSC. Following normalization of the protein amount, cpm/μg protein for each time point was compared to the peak drug time 0.
# [4] = tested on: HCT15 cells (which express P-glycoprotein); assay: Decrease of the IC50 of paclitaxel in HCT15 cells on adding a P-glycoprotein inhibitor; type: cell-based; conditions: lopinavir 5 μM added to paclitaxel
# P-glycoprotein [5] = molecular target: T1, P-glycoprotein; assay: in vitro; conditions: Caco-2, pH 7.4
# Description: as §1, §2, §3, §4
# P-glycoprotein [6] = molecular target: T1, P-glycoprotein; assay: Vinblastine transepithelial bi-directional transport across Caco-2 cell monolayers with or without P-glycoprotein inhibitors; conditions: Run 2, vinblastine 5 μM, inhibitor 10 μM
# Description: as §1, §2, §3
# (§5) The transport of vinblastine, which is the pharmaceutically active agent in these studies, was allowed to proceed for 120 minutes at 37° C. Stock concentrations (C0) of each of the P-glycoprotein inhibitors were treated similarly as dosed cells and were retained and sampled for starting dose. Aliquots for both the AP and the BL sides of the cell monolayers were taken at 2 hours, and such aliquots were analyzed by liquid scintillation counting (LSC) using a Packard Liquid Scintillation Counting machine. Calculation of the apparent permeability was done by using the following Artusson equation: [formula]
# (§6) where dQ/dT is the flux rate (μg/sec), C0 is concentration of the starting material at t=0 (μg/mL), and A=the area of the monolayer (cm^2). For the triplicate wells the P(app) is the mean of the three individual P(app) values for each well.
# P-glycoprotein [7] = molecular target: T1, P-glycoprotein; assay: in vitro; conditions: Caco-2
# Description: as §1, §2, §3, §5, §6
# [8] = Table 2B (printed Run 1), Caco-2, lopinavir or ritonavir 5 μM, CyA 10 μM, 120 minutes at 37° C., mean ± SD of triplicate wells
# [9] = 120 minutes at 37° C., mean ± SD of triplicate wells
# T1 sequence (P08183 whole entry): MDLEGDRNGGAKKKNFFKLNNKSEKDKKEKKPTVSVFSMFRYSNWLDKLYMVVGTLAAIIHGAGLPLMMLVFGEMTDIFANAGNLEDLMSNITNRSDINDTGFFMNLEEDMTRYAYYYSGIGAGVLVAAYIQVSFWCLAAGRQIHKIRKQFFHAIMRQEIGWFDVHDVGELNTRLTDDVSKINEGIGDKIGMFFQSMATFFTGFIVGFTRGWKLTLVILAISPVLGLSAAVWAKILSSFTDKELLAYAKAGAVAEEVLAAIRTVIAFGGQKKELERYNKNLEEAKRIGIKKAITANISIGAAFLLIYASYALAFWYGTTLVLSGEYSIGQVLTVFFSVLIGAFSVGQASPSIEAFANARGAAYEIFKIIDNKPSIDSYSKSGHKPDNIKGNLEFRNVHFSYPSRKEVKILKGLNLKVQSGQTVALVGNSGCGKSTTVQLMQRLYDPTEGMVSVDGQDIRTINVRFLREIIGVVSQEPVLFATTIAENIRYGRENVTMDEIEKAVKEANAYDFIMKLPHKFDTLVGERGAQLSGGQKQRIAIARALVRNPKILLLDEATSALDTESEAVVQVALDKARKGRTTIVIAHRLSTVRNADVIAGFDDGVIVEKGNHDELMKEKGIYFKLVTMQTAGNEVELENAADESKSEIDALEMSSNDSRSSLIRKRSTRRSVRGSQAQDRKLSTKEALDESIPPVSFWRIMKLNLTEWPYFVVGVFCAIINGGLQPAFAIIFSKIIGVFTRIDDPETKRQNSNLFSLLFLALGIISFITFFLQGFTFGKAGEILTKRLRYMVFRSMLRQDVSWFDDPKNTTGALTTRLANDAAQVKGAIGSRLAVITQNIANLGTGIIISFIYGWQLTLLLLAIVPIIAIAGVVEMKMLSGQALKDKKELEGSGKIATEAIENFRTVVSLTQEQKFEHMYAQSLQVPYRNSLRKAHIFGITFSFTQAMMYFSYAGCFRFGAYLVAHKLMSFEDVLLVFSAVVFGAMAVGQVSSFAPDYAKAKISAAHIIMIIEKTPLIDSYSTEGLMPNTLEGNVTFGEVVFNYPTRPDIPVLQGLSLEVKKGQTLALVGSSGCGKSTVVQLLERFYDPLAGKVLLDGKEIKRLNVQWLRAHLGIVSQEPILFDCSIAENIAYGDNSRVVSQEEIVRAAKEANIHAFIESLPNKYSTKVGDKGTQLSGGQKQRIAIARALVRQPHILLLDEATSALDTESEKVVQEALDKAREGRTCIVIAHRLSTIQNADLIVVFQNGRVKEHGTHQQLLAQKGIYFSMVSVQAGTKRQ
structure (smiles),measurement,setting,value
"Cc1cccc(C)c1OCC(=O)N[C@@H](Cc1ccccc1)[C@@H](O)C[C@H](Cc1ccccc1)NC(=O)[C@H](C(C)C)N1CCCNC1=O (relative stereo) [Lopinavir, [1S-[1R*,(R*),3R*,4R*]]-N-[4-[[(2,6-dimethylphenoxy)acetyl]amino]-3-hydroxy-5-phenyl-1-(phenylmethyl)pentyl]tetrahydro-alpha-(1-methylethyl)-2-oxo-(2H)-pyrimidine acetamide]",substrate for P-glycoprotein (conclusion from Tables 2A and 2B),P-glycoprotein [1]; Caco-2 bi-directional permeability with or without cyclosporin A,not a substrate for P-glycoprotein
same,P(app) AP-BL,P-glycoprotein [1]; [8],18.72 ± 1.04 1 × 10(−6) cm/sec
same,P(app) BL-AP,P-glycoprotein [1]; [8],17.42 ± 4.37 1 × 10(−6) cm/sec
same,reduction of the IC50 of paclitaxel,[2]; lopinavir 5 μM with paclitaxel,11 fold
same,reduction of the IC50 of paclitaxel,[2]; lopinavir 10 μM with paclitaxel,21 fold
same,compound remained in the HCT15 cells,[3]; after 60 minutes,approximately 80%
same,decrease in the IC50 of paclitaxel,[4],9 fold
same,"Papp A→B at 120 min, 5 μM",P-glycoprotein [5],10.7 ± 0.58 ×10⁻⁶ cm/s
same,"Papp B→A at 120 min, 5 μM",P-glycoprotein [5],9.55 ± 2.1 ×10⁻⁶ cm/s
"CC(C)c1nc(CN(C)C(=O)N[C@H](C(=O)N[C@@H](Cc2ccccc2)C[C@H](O)[C@H](Cc2ccccc2)NC(=O)OCc2cncs2)C(C)C)cs1 (relative stereo) [Ritonavir, [5S-(5R*,8R*,10R*,11R*)]-10-hydroxy-2-methyl-5-(1-methylethyl)-1-[2-(1-methylethyl)-4-thiazolyl]-3,6-dioxo-8,11-bis(phenylmethyl)-2,4,7,12-tetraazatridecan-13-oic acid, 5-thiazolylmethyl ester]",elimination (efflux) by the HCT15 cells,[3]; in 15 minutes,rapidly eliminated
"CC[C@]1(O)C[C@@H]2CN(CCc3c([nH]c4ccccc34)[C@@](C(=O)OC)(c3cc4c(cc3OC)N(C)[C@H]3[C@@](O)(C(=O)OC)[C@H](OC(C)=O)[C@]5(CC)C=CCN6CC[C@]43[C@@H]65)C2)C1 [Vinblastine, vinblastine]",Ratio (BL-AP/AP-BL),P-glycoprotein [6],30.02
same,P(app) AP-BL,P-glycoprotein [6]; [9],0.49 ± 0.00 1 × 10(−6) cm/sec
same,P(app) BL-AP,P-glycoprotein [6]; [9],14.71 ± 3.33 1 × 10(−6) cm/sec
same,"Papp A→B at 120 min, 5 μM",P-glycoprotein [7],0.91 ± 0.07 ×10⁻⁶ cm/s
same,"Papp B→A at 120 min, 5 μM",P-glycoprotein [7],17.7 ± 0.39 ×10⁻⁶ cm/s
same,"efflux ratio at 120 min, 5 μM",P-glycoprotein [7],19.5
